Test results: ChEMBL document CHEMBL3045009, “Synthesis and Biological Activity of the Functional Derivatives of 3- and 4-(Dimethyl-aminomethyl)-1,2-dithiolanes” (1992)

What was measured:
Assay type in all cases: functional
[1] = tested on: Spodoptera litura; assay: Insecticidal activity against Spodoptera litura assessed as mortality at 500 ppm; conditions: for mortality at 500 ppm: Spodoptera litura
[2] = tested on: Tetranychus urticae; assay: Acaricidal activity against Tetranychus urticae (two-spotted spider mite) assessed as mortality at 500 ppm; conditions: for mortality at 500 ppm: Tetranychus urticae
[3] = tested on: Nilaparvata lugens; assay: Insecticidal activity against Nilaparvata lugens (brown planthopper) assessed as mortality at 50 ppm; conditions: for mortality at 50 ppm: Nilaparvata lugens
[4] = tested on: Culex pipiens molestus; assay: Insecticidal activity against Culex pipiens molestus assessed as mortality at 5 ppm; conditions: for mortality at 5 ppm: Culex pipiens
[5] = tested on: Chilo suppressalis; assay: Insecticidal activity against Chilo suppressalis (rice stem borer) assessed as mortality at 50 ug/g administered as topical application
[6] = tested on: Chilo suppressalis; assay: Insecticidal activity against Chilo suppressalis (rice stem borer) assessed as mortality compound administered as topical application

SMILES	mortality at 500 ppm [1] [%]	mortality at 500 ppm [2] [%]	mortality at 50 ppm [3] [%]	mortality at 5 ppm [4] [%]	mortality [5] [%]	LD50 [6] [mg/kg]	mortality [1] [%]	mortality [2] [%]	mortality [3] [%]	mortality [4] [%]
CN(C)CC(CSC(=O)N(C)C)CSC(=O)N(C)C.O=C(O)C(=O)O	0	100	30	0	20					
CN(C)CC(CSC(N)=O)CSC(N)=O.Cl.O	100	80	100	100	100	12.6				
CNC(=O)SCC(CSC(=O)NC)CN(C)C	20	90	30	100	100	27.1				
CC(C)NC(=O)SCC(CSC(=O)NC(C)C)CN(C)C					100		0	60	20	100
CC(C)NC(=O)SCC(CSC(=O)NC(C)C)CN(C)C.O=C(O)C(=O)O	0			100	100	30.5		90	0	
CC(C)NC(=S)SCC(CSC(=S)NC(C)C)CN(C)C	50	80	100	100	100	12.7				
CSCCC(CN(C)C)SC (centres undefined)					0		0	20	10	0
CSCCC(CN(C)C)SC.O=C(O)C(=O)O (centres undefined)	0			0	0			100	30	
CCOC(=O)CSCC(CSCC(=O)OCC)CN(C)C.O=C(O)C(=O)O	0	80	40	0	0					
CN(C)CC1CCS[S+]1[O-].O=C(O)C(=O)O (centres undefined)	0	100	100	100	100	7.5				
CN(C)CC1CS[S+]([O-])C1.O=C(O)C(=O)O (centres undefined)	70	100	100	0	100					
CN(C)CC(CCSS(=O)(=O)c1ccccc1)SS(=O)(=O)c1ccccc1 (centres undefined)	0	100	30	100	100	11.6				
CN(C)CC(CSS(=O)(=O)c1ccccc1)CSS(=O)(=O)c1ccccc1.O=C(O)C(=O)O	80	100	100	0	100					
CN(C)C[C@@H]1CCSC(C(=O)c2ccccc2)(C(=O)c2ccccc2)S1					100	7.1	10	100	90	40
CN(C)C[C@@H]1CCSC(C(=O)c2ccccc2)(C(=O)c2ccccc2)S1.O.O=C(O)C(=O)O		100	100		100	7.5	0			65
CC(=O)SCCC(CN(C)C)SC(C)=O (centres undefined)	10	100	80	80	100					
CN(C)CC(CCSC(=O)c1ccccc1)SC(=O)c1ccccc1.O.O=C(O)C(=O)O (centres undefined)					100		0	100	100	100
CN(C)CC(CCSC(=O)c1ccccc1)SC(=O)c1ccccc1.Cl (centres undefined)		100	100	95	100		50			
CCC(=O)SCCC(CN(C)C)SC(=O)CC.O=C(O)C(=O)O (centres undefined)	40	80	70	20	100					
CCOC(=O)C1SCC(CN(C)C)CS1 (mixture of isomers)	0	20	90	0	0					
CN(C)C(CSS(=O)(=O)c1ccccc1)CSS(=O)(=O)c1ccccc1 [BENSULTAP]						3.7				
CN(C)C1CSSSC1.O=C(O)C(=O)O [THIOCYCLAM HYDROGEN OXALATE]	20	80	100	100	100					
